Experimental data taken from patent US6365187B2, “Bioadhesive microspheres and their use as drug delivery and imaging systems” (priority 1992, dated 2002).

Conditions: rat, in vivo
Procedure: The animals were then housed in metabolic cages and the feces were collected every three hours for a period of four days. At given time intervals, the rats were X-rayed, and the distribution of the microspheres in the stomach and in the intestine was followed. The collected feces were also X-rayed in order to monitor the total transit time of the microspheres through the GI tract.
Tests were conducted in areas of distinct pH and physiology: the stomach (low pH range), and the intestine (basic environment, pH ranging from 5-7, in the proximal to distal regions, respectively), FIGS. 6a, 6b, and 6c.

alginate
retention time in the intestine, ranking: longest retention time from the group of hydrogels
